Experiments:
[1] = tested on: human patients suffering pain and discomfort associated with fibromyalgia; assay: Oral ingestion of hyaluronic acid by patients afflicted with fibromyalgia, subjective pain feeling; type: in vivo
Protocol: Another study involving thirty-five human patients suffering pain and discomfort associated with fibromyalgia was undertaken to evaluate the effectiveness of oral ingestion of hyaluronic acid. Each patient received about 1 to about 6 mg of hyaluronic acid by oral ingestion administration of concentrate diluted into beverages or food. Over a treatment period of about 1 to about 14 months, the patients' subjective pain feeling was reported. Twenty-one patients reported no pain after hyaluronic acid therapy. Six patients (17.1%) reported some (60%) degree of pain relief. Eight patients reported no change in the amount of pain they felt.

[2] = tested on: human patients suffering pain and discomfort associated with rheumatoid arthritis; assay: Oral ingestion of hyaluronic acid by patients afflicted with rheumatoid arthritis, subjective pain score 0 to 10; type: in vivo; details: scale 0 to 10; about 1 mg oral solution for 30 days; average prior to the study 8.47; 15 of seventeen patients responded
Protocol: Another study involving seventeen human patients suffering pain and discomfort associated with rheumatoid arthritis was undertaken. Each patient received about 1 mg of an oral hyaluronic acid solution for a period of 30 days. Each patient was asked to evaluate his or her subjective pain feeling and report the score on a scale of 0 to 10, wherein 0 means no pain and/or stiffness whatsoever and 10 means worst imaginable pain and/or stiffness. Prior to the start of the study, the patients reported as follows: […]

[3] = tested on: patients suffering from osteoarthritis; assay: Oral ingestion of hyaluronic acid by patients suffering from osteoarthritis, subjective pain feeling; type: in vivo, human; details: of sixty-seven osteoarthritis patients; 1-4 mg oral 1 to 4 times a day
Protocol: A study involving sixty-seven patients suffering from osteoarthritis was undertaken to determine the effectiveness of oral ingestion of hyaluronic acid. Each patient received 1-4 mg of hyaluronic acid by oral ingestion administration 1 to 4 times a day over periods ranging from about […], during which period the patients' subjective pain feeling was reported. […] Fourteen patients reported no change in the amount of pain they felt.

[4] = of thirty-five fibromyalgia patients, about 1 to about 6 mg oral, about 1 to about 14 months

hyaluronic acid
patients reported no change in the amount of pain [1, 4]: Eight
patients reported no pain after hyaluronic acid therapy [1, 4]: Twenty-one
patients reported some degree of pain relief [1, 4]: Six
patients reported some degree of pain relief (percent of patients) [1, 4]: 17.1%
some (60%) degree of pain relief ([1]; printed in brackets in the sentence on the six patients with some pain relief): 60%
average subjective pain and/or stiffness score at completion of the 30-day study [2]: 3.47
patients reported no change in the amount of pain [3]: Fourteen
patients reported no pain and increased range of motion [3]: Twenty-nine
patients reported no pain and increased range of motion (percent of patients) [3]: 43.3%
patients reported some degree of pain relief and some increased range of motion [3]: Twenty-four
patients reported some degree of pain relief and some increased range of motion (percent of patients) [3]: 35.8%
